Values after ≈ are worked out from the molar mass of the structure shown. Residues, ends and D or L forms follow the SMILES beside them.
Columns and labels:
[1] = tested on: Bacillus subtilis (CMCC(B)63501); experiment: microbe, parasite or virus in culture; conditions: 10^6 CFU/ml, 96-well plate, overnight 37 °C, visual clarity, performed at least three times
Source text: (§1) Viba 11, originally discovered in Viola baoshanensis[39] and found in other plants such as Viola tricolor[40], Viola betonicifolia, and Viola philippica, lacks biological activity studies. […] All purified cyclotides underwent antibacterial testing against Gram-positive bacterium Staphylococcus aureus (CMCC(B)26003-2-10) and Bacillus subtilis (CMCC(B)63501), Gram-negative bacteria, including Acinetobacter baumannii (ATCC19606), Escherichia coli (CMCC(B)44102-2-6), and Salmonella paratyphi (CMCC(B)50094-2-9).
(§2) Bacterial fluids are cultured overnight at 37 °C. The next day, the bacterial liquids are diluted to a concentration of 10^6 CFU/ml. Prepare different concentrations of cyclotide drugs and kanamycin sulfate in advance, and sequentially add the drugs and bacterial liquid to the 96-well plate. Negative controls consisted of sterile water and bacterial liquid. The plate is cultured overnight at 37 °C and observe whether the solution remains clear to see the growth of the bacterial suspension. Each test was performed three times at least.

[2] = tested on: Acinetobacter baumannii (ATCC19606); experiment: microbe, parasite or virus in culture; conditions: Acinetobacter baumannii ATCC19606; 10^6 CFU/ml, 96-well plate, overnight 37 °C, visual clarity; performed at least three times
Source text: as §1, §2

[3] = tested on: Escherichia coli (CMCC(B)44102-2-6); experiment: microbe, parasite or virus in culture; conditions: 10^6 CFU/ml, 96-well plate, overnight 37 °C, visual clarity, performed at least three times
Source text: as §1, §2

[4] = tested on: Staphylococcus aureus (CMCC(B)26003-2-10); experiment: MIC, broth dilution in 96-well plate; format: cell-based; conditions: 10^6 CFU/ml, overnight 37 °C, visual clarity, performed at least three times
Source text: (§3) Cycloviolacin O2, known for its antimicrobial, hemolytic, and insecticidal activities, has been more extensively investigated[4],[20],[36]–[38]. Viba 11, originally discovered in Viola baoshanensis[39] and found in other plants such as Viola tricolor[40], Viola betonicifolia, and Viola philippica, lacks biological activity studies. These two cyclotides and vija 10 are high in content and easy to purify, and cycloviolacin O2 can also be used as a positive control to conduct activity study. In addition, few vija12 and 31 were extracted for antibacterial experiments. All purified cyclotides underwent antibacterial testing against Gram-positive bacterium Staphylococcus aureus (CMCC(B)26003-2-10) and Bacillus subtilis (CMCC(B)63501), Gram-negative bacteria, including Acinetobacter baumannii (ATCC19606), Escherichia coli (CMCC(B)44102-2-6), and Salmonella paratyphi (CMCC(B)50094-2-9). […] In addition, the MICs of viba 11, cycloviolacin O2 and vija 10 against B. subtilis were respectively 5.4 μM, 2.1 μM and 14.3 μM (Table 1). […] Therefore, it is hypothesized that the lower antimicrobial activity of vija 10 may be attributed to the presence of only one Lys residue in loop 5.
as §2

[5] = tested on: Salmonella paratyphi (CMCC(B)50094-2-9); experiment: MIC, broth dilution in 96-well plate; format: cell-based; conditions: 10^6 CFU/ml, overnight 37 °C, visual clarity, performed at least three times
Source text: as §3, §2

[6] = tested on: 7402 (human hepatocellular carcinoma cells); experiment: MTT cytotoxicity assay; format: cell-based; conditions: 7402 cells, 48 h incubation, mean ± SD of at least three repeats
Experimental: (§4) Five types of cells, namely A549 (human non-small cell lung cancer cells), T24 (human bladder cancer cells), 4T1 (mouse breast cancer cells), 7402 (human hepatocellular carcinoma cells), and THLE-3 (human hepatocytes cells), are selected for evaluating the cytotoxicity of viba 11, cycloviolacin O2, and vija 10 using the MTT (3-(4,5-dimethylthiazol-2-yl)-2,5-diphenyltetrazolium bromide) reagent.
(§5) To determine cell toxicity using MTT assay, cells are seeded in a 96-well plate and cultured for 24 h. After that, different concentrations of cyclotides are added to the cells and incubated for 48 h. MTT is then added to react with the cells, and after 4 h, the reaction is terminated by discarding the supernatant and adding dimethyl sulfoxide for resuspension. The absorbance at 570 nm is measured after 10 min of shaking at room temperature. Each test was performed three times at least. The data were analyzed using GraphPad Prism 8. During this process, the drug concentrations were transformed into logarithmic form with a base of 10 and plotted on the x-axis. Cell viability (%) = [A (cyclotides) − A (blank)]/[A (control) − A (blank)] × 100, which was represented on the y-axis. Using this method, we determined the IC50 value for each experiment, with each experiment repeated at least three times and the mean value calculated. The error was represented by the standard deviation of the IC50 obtained from three repetitions.

[7] = tested on: THLE-3 (human hepatocytes cells); experiment: MTT cytotoxicity assay; format: cell-based; conditions: THLE-3 cells, 48 h incubation, mean ± SD of at least three repeats
Experimental: as §4, §5

[8] = tested on: T24 (human bladder cancer cells); experiment: MTT cytotoxicity assay; format: cell-based; conditions: 48 h incubation, mean ± SD of at least three repeats
Experimental: as §4, §5

[9] = tested on: 4T1 (mouse breast cancer cells); experiment: MTT cytotoxicity assay; format: cell-based; conditions: 4T1 cells, 48 h incubation, mean ± SD of at least three repeats
Experimental: as §4, §5

[10] = tested on: A549 (human non-small cell lung cancer cells); experiment: MTT cytotoxicity assay; format: cell-based; conditions: 48 h incubation, mean ± SD of at least three repeats
Experimental: as §4, §5

[11] = tested on: Acinetobacter baumannii; experiment: DAPI/PI staining, laser scanning confocal microscopy (membrane integrity); format: cell-based; conditions: A. baumannii 10^8 CFU/mL, 37 °C, 1-2 h, DAPI and PI staining
Source text: Many naturally occurring antimicrobial peptides (AMPs) are cationic. Cationic AMPs (CAMPs) exert bactericidal activity by mechanisms featuring cell membrane disruption. Cyclotides are likely to kill germ by disrupting their membranes. Laser scanning confocal microscopy can be used to study the ability of cyclotides to destroy bacterial membrane. 4′, 6-diaminyl-2-phenylindole (DAPI) is a blue fluorescent dye that can penetrate membranes and stain both living and dead strains, while propyl iodide (PI) stains only strains with damaged membranes, glowing red[46],[47]. In this study, the bracelet cyclotide family members viba 11 and vija 10 interacted with A. baumannii and B. subtilis in their logarithmic phase at 37 °C for 1–2 h. After the addition of DAPI and PI fluorescent dyes, the samples were incubated in a dark room at room temperature for 15 min for staining. The stained samples were then centrifuged to concentrate, resuspended, and applied to a slide for observation using a confocal laser scanning microscope (FLUOVIEW FV3000, Olympus). […] With increasing concentration, the blue and red fluorescence gradually overlapped. […] However, the magnification is not sufficient to detect further details of membrane disruption. Therefore, further exploration can be conducted using methods such as scanning electron microscopy (SEM) to study the antibacterial mechanism in depth.
Figure 5 Study on the antimicrobial mechanism of cyclotides. (A) Incubation of Acinetobacter baumannii with sterile water, 1 MIC and 4 MIC of viba 11. (B) Incubation of Bacillus subtilis with sterile water, 1 MIC and 4 MIC of vija 10. All samples were stained with DAPI and PI. The negative control group PI is not stained and the membrane is intact, while the membrane treated with cyclotides was stained and the membrane are destroyed. Scale bar: 20 μm. Magnification: 600×.
Take 50 μL of A. baumannii and B. subtilis (10^8 CFU/mL), and add 50 μL of sterile water, different concentrations of cyclotides viba 11 and vija 10 to achieve final concentrations of 1 MIC and 4 MIC respectively. Incubate at 37 °C for 1–2 h. Subsequently, add 4,6-diamino-2-phenylindole (DAPI) and propidium iodide (PI) dyes at 20 μg/mL each, and incubate in the dark for 15 min. Centrifuge at 5000 rpm for 3 min to concentrate, discard the majority of the supernatant, and resuspend the bacteria in the remaining small volume of liquid. Mix well and take 10 μL of the stained sample onto a glass slide, gently place a cover slip on top with forceps, avoiding the formation of bubbles during the pressing process. After sealing the cover slip, check with a laser confocal microscope, and the observation was conducted using an objective lens with the maximum magnification of 60 × . […]

CC[C@H](C)[C@@H]1NC(=O)[C@H](C)NC(=O)CNC(=O)[C@H](CO)NC(=O)[C@H]([C@@H](C)CC)NC(=O)[C@@H]2CSSC[C@@H]3NC(=O)[C@H](C(C)C)NC(=O)[C@H](CCCCN)NC(=O)[C@H](CO)NC(=O)[C@H](CCCCN)NC(=O)[C@@H]4CSSC[C@H](NC(=O)[C@H](CO)NC(=O)[C@H](CCC(=O)O)NC(=O)CNC(=O)[C@H](CSSC[C@H](NC(=O)CNC1=O)C(=O)N[C@@H](CO)C(=O)N4)NC(=O)[C@@H]1CCCN1C(=O)[C@H]([C@@H](C)CC)NC(=O)CNC(=O)[C@H](CC(N)=O)NC(=O)[C@H](CCCNC(=N)N)NC(=O)[C@H](Cc1ccc(O)cc1)NC3=O)C(=O)N[C@@H](C(C)C)C(=O)N[C@@H](Cc1c[nH]c3ccccc13)C(=O)N[C@@H]([C@@H](C)CC)C(=O)N1CCC[C@H]1C(=O)N2 [viba 11] (HELM PEPTIDE1{A.I.G.C.S.C.K.S.K.V.C.Y.R.N.G.I.P.C.G.E.S.C.V.W.I.P.C.I.S.G}$PEPTIDE1,PEPTIDE1,4:R3-18:R3|PEPTIDE1,PEPTIDE1,6:R3-22:R3|PEPTIDE1,PEPTIDE1,11:R3-27:R3|PEPTIDE1,PEPTIDE1,1:R1-30:R2$$$V2.0)
MIC [1]: 5.4 µM (≈ 16.8 µg/mL) | MIC [2]: 10.8 µM (≈ 33.6 µg/mL) | MIC [3]: > 21.6 µM | MIC [4]: > 21.6 µM | MIC [5]: > 21.6 µM | IC50 [6]: 1.7 ± 0.05 µM | IC50 [7]: 1.609 ± 0.01 µM | IC50 [8]: 0.724 ± 0.17 µM | IC50 [9]: 0.285 ± 0.01 µM | IC50 [10]: 0.195 ± 0.09 µM | membrane integrity (PI red fluorescence) ([11]; 1 MIC): caused damage to the membrane integrity | membrane integrity (PI red fluorescence) ([11]; 4 MIC): majority of the cell membranes were ruptured

From publication PMC11056381, “Characterization and evaluation of cytotoxic and antimicrobial activities of cyclotides from Viola japonica” (Scientific Reports, 2024)
